Results as given in patent US7405305B2 (Eli Lilly and Company, priority 2002, dated 2008).
Where a name gives a salt, the structure may show the parent alone. Read-outs that look alike come from different tables or passages of the source.

How the values were obtained:
[1] = target: recombinant human GSK-3β (Homo sapiens, UniProt P49841); test: Kinase Inhibition Assay (GSK-3β, 33P phosphoCREB peptide filter assay); assay type: biochemical
Excerpt: An important in vitro test is the ability of the compound to inhibit the activity of the GSK-3β enzyme. This test is done according to a standard protocol. (See Fiol, et al, A Secondary Phosphorylation of CREB^341 at Ser^129 Is Required for the cAMP-Mediated Control of Gene Expression: A Role for Glycogen Synthase Kinase-3 in the Control of Gene Expression, J. Biol. Chem., 269, 32187-32193 (1994)).
The catalysis of the reaction:
(pS)YR+AT^33P→KRREIL(^33pS)RRP(pS)YR [measured]+ADP by GSK-3β is measured in a reaction mixture comprised of the following: 50 mM MOPS (4-morpholinepropanesulfonic acid) pH 7.0; 50 μM phosphoCREB peptide; 50 μM ATP; 0.5 μCi ATP[γ-^33P]; 12.5 mM MgCl2; 0.03% Triton-X; 4% DMSO; and 1 nM recombinant human GSK-3β. The reaction is initiated by the addition of enzyme. The final reaction volume is 100 μL. The reaction is allowed to proceed for 60 minutes at room temperature and is stopped by the addition of 75 μL of 10% phosphoric acid. To capture KRREIL(^33pS)RRP(pS)YR formed in the reaction and to remove unreacted AT^33P, 160 μL of the stopped reaction mixture is transferred to a pre-wetted (0.75% phosphoric acid) phosphocellulose microfiltration plate [Millipore Cat.# MAPH NOB 50] and after 90 minutes incubation on the plate, the stopped reaction mixture is passed through the filter using a Titertek Map Extractor. The filter containing the trapped KRREIL(^33pS)RRP(pS)YR is washed with 220 μL of 0.75% phosphoric acid. Filter plates are blotted to remove droplets from the underdrain. The underdrain is removed from the filter and the filter is placed into a clear plate liner (Wallac, Inc.). Added to each well is 100 μL of Microscint 20 (Packard).
After standing at least six hours (preferably overnight), the plates are counted in a Trilux scintillation counter (Wallac, Inc.). The ability of a compound to inhibit GSK-3β is determined by including various concentrations of the compound in the reaction mixture and comparing the signal produced to the signal produced in a reaction mixture without the compound.
The test yields the molar concentration of the test compound that produces a 50% inhibition of the GSK-3β enzyme activity.

[2] = test system: β-catenin in AG04160C FAD lymphoblast cells; test: β-Catenin Protection Assay; assay type: cell-based, human; details: fold induction over basal β-catenin, 24 hours, concentration not given
Experimental: This test measures the fold induction over basal β-catenin and is performed according to standard protocols (Hedgepeth, C. M., Dev. Biol. 185, 82-91 (1997); Chen, G., et al., J. Neurochem., 72, 1327-1330 (1999); Hong, M., et al., J. Biol. Chem., 272, 25326-25332 (1997)).
The human familial Alzheimer's disease (FAD) presenilin-1 AG04160C lymphoblast cell line (Coriell Cell Repository, Camden, N.J.) is maintained as a suspension culture in RPMI 1640 (with L-Glutamine) supplemented with 10% fetal bovine serum and 1% penicillin-streptomycin in an atmosphere of 37° C. and 5% CO2. The AG04160C FAD lymphoblast cells are seeded in T-25 cm^2 flasks at 2.5 to 5.0×10^5 cells/ml in a total volume of 10 ml. Following 16-18 hours of growth, cells are treated with compound at concentrations of 0.1 μM, 1.0 μM, and 10 μM, and are incubated for an additional 24 hours. […] The total protein concentration in whole cell lysate samples is determined using the BCA method (Pierce). […] The β-catenin accumulation/stability is then quantified following densitometry analysis of protein bands. […]

[3] = test system: 3T3-L1 adipocytes; test: Glycogen Synthesis Assay (14C-glucose incorporation into glycogen); assay type: cell-based; details: 1 μM compound
Experimental: This test measures the increase in the production of glycogen both in the absence and in the presence of insulin in the cells. This test is done according to standard protocols. (See Berger and Hayes, A High-Capacity assay for Activators of Glucose Incorporation into Glycogen in L6 Muscle Cells, Analytical Biochemistry, 261, 159-163 (1998).)
Briefly, 3T3-L1 adipocytes are plated and differentiated in a 96-well plate at 25,000 cells/well. The plate is serum-starved overnight. The serum-starvation media is removed just prior to assay, and the plate is washed with 100 μl/well Krebs-Ringer-Hepes buffer (KRBH). The KRBH is removed and 50 μl of compound (twice the amount of the final concentration) is added to the assay plate. Next, 50 μl of ^14C-labeled glucose is added to the assay plate at 0.1 μCi/well. The plate is then incubated at 37° C. for 2 hours.
The plate is washed with 100 μL/well of PBS, and the cells are lysed with 75 μl/well of 1N NaOH. The plate is heated at 70° C. for 20 minutes. An aliquot (50 μl) of the supernatant is transferred from the assay plate to a Millipore FC filter plate containing 120 μl/well of ice-cold ethanol. The plate is allowed to stand for 2 hours at 4° C. to facilitate precipitation. The ethanol is removed from the filter plate via a vacuum manifold, and the plate is washed with 100 μL/well of ice-cold 70% ethanol. The plate was allowed to dry overnight, and 75 μl/well of Microscint-20 was added to the filter plate. The plate was then counted on a Packard Topcount.

[4] = test system: ZDF rats; test: Glucose Lowering Assay; assay type: in vivo, rat; details: oral gavage once daily, relative to insulin
Experimental: This test measures the effect of the test compound on blood glucose and triglycerides relative to insulin. (See Eldar-Finkleman, et al, Expression and Characterization of Glycogen Synthase Kinase-3 Mutants and Their Effect on Glycogen Synthase Activity in Intact Cells, Proc. Nat. Acad. Sci., 93, 10228-10233 (1996).)
ZDF rats (Charles River, Inc.) at six weeks of age are housed individually with free access to food and water. Rats are dosed with drug once daily by oral gavage, with the compound prepared as a suspension in 1% caboxymethylcellusolve/0.25% Tween 80 (CMC-Tween). Vehicle controls are dosed with CMC-Tween only. The duration of study varied according to the protocol used, with acute dosing studies lasting one day and dose escalation studies lasting seven days. Body weights and food consumption measurements are also performed once a week for seven-day studies. For measurement of blood glucose and triglycerides, blood samples of 600 μl are collected by the tail snip method. (The tail snip for blood sampling is as follows: 1-2 mm of the tail is snipped with a sharp blade. After collection of blood, a scab forms at the site of wound. This scab is removed and the tail is gently massaged for other subsequent bleedings.) Glucose and triglyceride determinations are performed on a Hitachi 912 metabolic analyzer, with a kit utilizing the Trinder method. […]

[5] = Table II, 1 nM recombinant human GSK-3β, 50 μM ATP, 60 minutes at room temperature, read-out: GSK-3β IC50

Chain of recombinant human GSK-3β (P49841 whole entry): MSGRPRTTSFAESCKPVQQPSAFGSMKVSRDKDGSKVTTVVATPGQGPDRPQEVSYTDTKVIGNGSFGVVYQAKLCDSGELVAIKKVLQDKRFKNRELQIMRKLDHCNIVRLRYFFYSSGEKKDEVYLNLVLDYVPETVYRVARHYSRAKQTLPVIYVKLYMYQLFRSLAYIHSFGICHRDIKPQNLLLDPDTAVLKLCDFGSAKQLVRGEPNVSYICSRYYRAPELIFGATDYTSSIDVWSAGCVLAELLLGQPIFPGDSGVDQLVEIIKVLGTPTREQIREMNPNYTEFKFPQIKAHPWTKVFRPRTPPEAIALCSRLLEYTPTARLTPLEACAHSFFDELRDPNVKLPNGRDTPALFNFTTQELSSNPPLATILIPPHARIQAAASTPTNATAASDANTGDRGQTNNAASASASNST

Row | Compound | IC50 [1, 5] [nM] | other results
1 | Cn1ccc2c(C3=C(c4cn(CCCO)c5ccccc45)C(=O)NC3=O)cccc21 [Example 1, 3-(1-Methyl-1H-indol-4-yl)-4-[1-(3-hydroxypropyl)-1H-indol-3-yl]pyrrole-2,5-dione] | 176 | –
2 | COc1cc(C2=C(c3cn(CCN4CCN(C)CC4)c4ccccc34)C(=O)NC2=O)c2occc2c1 [Example 100, 3-(5-Methoxybenzofur-7-yl)-4-{1-[2-(4-methylpiperazin-1-yl)ethyl]-1H-indol-3-yl}pyrrole-2,5-dione] | – | IC50 [1]: 143 nM
3 | CCN(CC)CCCc1cccc2c(C3=C(c4cccc5ccoc45)C(=O)NC3=O)cn(C)c12 [Example 102, 3-(Benzofur-7-yl)-4-[7-(3-diethylaminopropyl)-1-methyl-1H-indol-3-yl]pyrrole-2,5-dione] | 125 | –
4 | CCN(CC)CCCOc1ccc2c(c1)c(C1=C(c3cc(F)cc4ccoc34)C(=O)NC1=O)cn2C(C)C [Example 114, 3-(5-Fluorobenzofur-7-yl)-4-[5-(3-diethylaminopropoxy)-1-isopropyl-1H-indol-3-yl]pyrrole-2,5-dione hydrochloride] | 133 | –

Now from value to compound, other results behind:

Row | IC50 [1, 5] [nM] | Compound | other results
5 | 70.2 | COc1ccc(C2=C(c3cn(CCCCN(C)C)c4ccccc34)C(=O)NC2=O)c2occc12 [Example 118] | –
6 | 9.5 | Cl.Cn1cc(C2=C(c3cccc4ccoc34)C(=O)NC2=O)c2cc(OCCNCC3CC3)ccc21 [Example 119, 3-(Benzofur-7-yl)-4-{5-[2-(cyclopropylmethylamino)ethoxy]-1-methyl-1H-indol-3-yl}pyrrole-2,5-dione hydrochloride] | β-Catenin (fold increase) [2]: 4.9× fold; Glycogen Synthesis (fold increase at 1 μM) in absence of insulin [3]: 2.82× in absence of fold; Glycogen Synthesis (fold increase at 1 μM) in presence of insulin [3]: 2.13× in presence of fold
7 | 55.2 | Cn1cc(C2=C(c3ccc(O)c4ccoc34)C(=O)NC2=O)c2ccccc21 [Example 135, 3-(4-Hydroxybenzofur-7-yl)-4-(1-methyl-1H-indol-3-yl)pyrrole-2,5-dione] | –
8 | 5.74 | O=C1NC(=O)C(c2cccc3ccoc23)=C1c1cn(C2CCNCC2)c2ccccc12 [Example 139, 3-(Benzofur-7-yl)-4-[1-(piperidin-4-yl)-1H-indol-3-yl]pyrrole-2,5-dione] | –
9 | 10.6 | CC(C)CN[C@H]1CC[C@H](n2cc(C3=C(c4cccc5ccoc45)C(=O)NC3=O)c3c(F)cccc32)CC1 [Example 150, 3-(Benzofur-7-yl)-4-[4-fluoro-1-(4-trans-isobutylaminocyclohexyl)-1H-indol-3-yl]pyrrole-2,5-dione hydrochloride] | Glucose Lowering (percent increase vs. effect of insulin) [4]: 58%; Glycogen Synthesis (fold increase at 1 μM) in absence of insulin [3]: 2.97× in absence of fold; Glycogen Synthesis (fold increase at 1 μM) in presence of insulin [3]: 3.92× in presence of fold
